By pIC50 is commonly meant the IC50 on a negative log10 scale, so that one unit is a factor of ten.

Each structure is given as a SMILES string. pIC50: −log10 of the molar value. A value given as a limit tells only on which side of the number the result lay.

We go through 22 compounds from ChEMBL document CHEMBL4190384, “Design, synthesis and biological evaluation of substituted (+)-SG-1 derivatives as novel anti-HIV agents” (Bioorg Med Chem Lett, 2018).

Data set [1] concerns Human immunodeficiency virus 1. As to the kind of experiment: Antiviral activity against HIV1 virions derived from HIV/[…] or HIV/HA virions infected 293T cells using human A549 cells as target cells assessed as inhibition of viral replication using compound pre-mixed virions followed by incubation with target cells for 24 hrs by luciferase reporter gene assay based defective HIV1 pseudoviral assay. In kind it is functional, organism-based. Conditions: Human immunodeficiency virus 1, 24 h. Background: In a reporter assay the amount or activity of a reporter protein is the signal.

In another data set the test system is A549. Put plainly: Cytotoxicity against human A549 cells at 10 uM after 48 hrs by CellTiter 96 AQueous one solution cell proliferation assay. Format: cell-based. The note with it: a549, 48 h.
In data set [2] the test system is Human immunodeficiency virus 1. As to the kind of experiment: Antiviral activity against HIV1 virions containing reverse transcriptase K103N mutant derived from HIV/VSG-G or HIV/HA virions infected 293T cells using human A549 cells as target cells assessed as inhibition of viral replication using compound pre-mixed virions followed by incubation with target cells for 24 hrs by luciferase reporter gene assay based defective HIV1 pseudoviral assay. Format: functional, organism-based. Conditions: Human immunodeficiency virus 1, 24 h.

Data set [3] deals with Human immunodeficiency virus 1. Put plainly: Resistance index, ratio of IC50 for antiviral activity against HIV1 virions containing reverse transcriptase K103N mutant derived from HIV/[…] or HIV/HA virions infected 293T cells using human A549 cells as target cells to IC50 for antiviral activity against wild type HIV1 virions derived from HIV/[…] or HIV/HA virions infected 293T cells using human A549 cells as target cells. Format: functional.

Data set [4] has as its system Human immunodeficiency virus 1. Put plainly: Antiviral activity against HIV1 virions containing reverse transcriptase Y181C mutant derived from HIV/VSG-G or HIV/HA virions infected 293T cells using human A549 cells as target cells assessed as inhibition of viral replication using compound pre-mixed virions followed by incubation with target cells for 24 hrs by luciferase reporter gene assay based defective HIV1 pseudoviral assay. Format: functional, organism-based. The note with it: Human immunodeficiency virus 1, 24 h.

Data set [5] relates to Human immunodeficiency virus 1. Put plainly: Resistance index, ratio of IC50 for antiviral activity against HIV1 virions containing reverse transcriptase Y181C mutant derived from HIV/[…] or HIV/HA virions infected 293T cells using human A549 cells as target cells to IC50 for antiviral activity against wild type HIV1 virions derived from HIV/[…] or HIV/HA virions infected 293T cells using human A549 cells as target cells. Format: functional.

Data set [6] deals with Human immunodeficiency virus 1. Put plainly: Antiviral activity against HIV1 virions containing reverse transcriptase E138K/M184V mutant derived from HIV/VSG-G or HIV/HA virions infected 293T cells using human A549 cells as target cells assessed as inhibition of viral replication using compound pre-mixed virions followed by incubation with target cells for 24 hrs by luciferase reporter gene assay based defective HIV1 pseudoviral assay. In kind it is functional, organism-based. Conditions: Human immunodeficiency virus 1, 24 h.

Data set [7] deals with Human immunodeficiency virus 1. Put plainly: Resistance index, ratio of IC50 for antiviral activity against HIV1 virions containing reverse transcriptase E138K/M184V mutant derived from HIV/VSG-G or HIV/HA virions infected 293T cells using human A549 cells as target cells to IC50 for antiviral activity against wild type HIV1 virions derived from HIV/VSG-G or HIV/HA virions infected 293T cells using human A549 cells as target cells. Format: functional.

The test system of data set [8] is Human immunodeficiency virus 1. As to the kind of experiment: Antiviral activity against human HIV1 by VSV-G/HIV1 infection assay. In kind it is functional, organism-based.

As to `COc1cc2c(cc1OC)[C@H](c1cc(OC)c(OC)c(OC)c1)[C@@H](C)CC2`, the pIC50 was 7.05 in data set [1], 6.82 in [2], < 5.00 in data set [4] and 6.74 in data set [6]. Besides, the Activity result with A549 is recorded as “Non-Toxic”. Also, the entries for the “Ratio IC50” value in [3], in data set [5] and in data set [7] were 1.7, >111 and 2, respectively.
As to `COc1cc2c(cc1OC)N(c1cc(OC)c(OC)c(OC)c1)CCC2`, the pIC50 in data set [1] was 5.30. In the data set with A549, the Activity result was “Non-Toxic”.
`COc1ccc([C@H]2c3cc(OC)c(OC)cc3C[C@H](C)[C@@H]2C)cc1OC`: the pIC50 is 5.97 in data set [8]; 6.07 in [1]; 5.86 in [2]; < 5.00 in [4]; 5.40 in data set [6]. In the data set on A549, the Activity result was “Non-Toxic”. The “Ratio IC50” value in [3] is on record as 1.6; in [5], >11.6; in data set [7] it was 4.7.
As for `COc1ccc([C@H]2c3cc(OC)c(OC)cc3C[C@@H]2C)cc1OC`, the pIC50 in data set [1] is 5.35. Further, the Activity entry in the data set on A549 is recorded as “Non-Toxic”.
The like results for `COc1ccc([C@@H]2c3cc(OC)c(OC)cc3C[C@H](C)[C@H]2C)cc1OC` were, in that order, < 5.00 and “Non-Toxic”.
In the same order, the values of `COc1cc2c(cc1OC)[C@H](c1cc(OC)c(OC)c(OC)c1)[C@@H](C)C2` are 6.47 and “Non-Toxic”.
In the same order, the values of `COc1cc(CCC(=O)N2C(=O)OC[C@@H]2Cc2ccccc2)cc(OC)c1OC` are < 5.00 and “Non-Toxic”.
With `COc1cc2c(cc1OC)[C@@H](c1ccc3c(c1)OCO3)[C@H](C)[C@@H](C)C2`, the pIC50 in data set [1] was < 5.00. Also, in the data set on A549, the Activity result was “Non-Toxic”.
Turning to `COc1cc([C@H]2c3c(cc(OC)c(OC)c3OC)C[C@H](C)[C@@H]2C)cc(OC)c1OC`, the pIC50 in data set [1] is 6.16; in data set [2], 6.12; in [4], < 5.00; in [6] it was 5.23. In addition, the Activity entry in the data set on A549 is given as “Non-Toxic”. The “Ratio IC50” value in data set [3] was 1.1; in [5] it was >14.5; in data set [7], 8.6.
`CO/N=C(\c1ccc(OC)c(OC)c1)c1cc(OC)c(OC)c(OC)c1`: the pIC50 in data set [1] is < 5.00. The Activity result with A549 was “Non-Toxic”.
`COc1cc2c(cc1OC)[C@@H](c1cc(OC)c(OC)c(OC)c1)[C@H](C)CC2`: the pIC50 was 5.99 in data set [1], 5.76 in data set [2], < 5.00 in [4] and 5.15 in data set [6]. Besides, the Activity entry in the data set on A549 was “Non-Toxic”. The “Ratio IC50” value in [3] is reported as 1.7; in [5], >9.8; in data set [7], 7.
For `COc1cc2c(cc1OC)[C@@H](c1cc(OC)c(OC)c(OC)c1)[C@H](C)[C@@H](C)C2`, the pIC50 in data set [1] is < 5.00. Also, in the data set with A549, the Activity entry is listed as “Non-Toxic”.
Regarding `COc1cc2c(cc1OC)[C@H](c1cc(OC)c(OC)c(OC)c1)[C@@H](C)[C@@H](C)C2`, the pIC50 is 6.80 in data set [1], 6.74 in [2], 4.97 in [4] and 5.86 in data set [6]. Moreover, the Activity result with A549 is reported as “Non-Toxic”. The figures for the “Ratio IC50” value in [3], in data set [5] and in data set [7] were 1.1, 67.5 and 8.6, respectively.
Turning to `COc1cc2c(cc1OC)N(c1cc(OC)c(OC)c(OC)c1)C(=O)CC2`, the pIC50 in data set [1] was < 5.00. In addition, in the data set on A549, the Activity entry is given as “Non-Toxic”.
The like results for `COc1ccc(/C(=N/O)c2cc(OC)c(OC)c(OC)c2)cc1OC` were, in that order, < 5.00 and “Non-Toxic”.
For `COc1ccc(C(=O)c2cc(OC)c(OC)c(OC)c2)cc1OC`, in data set [1], the pIC50 is < 5.00. Also, the Activity entry in the data set on A549 is listed as “Non-Toxic”.
The like results for `CCC1CCc2cc(OC)c(OC)cc2N1c1cc(OC)c(OC)c(OC)c1` (racemic) were, in that order, 6.14 and “Non-Toxic”.
For `CCCC1CCc2cc(OC)c(OC)cc2N1c1cc(OC)c(OC)c(OC)c1` (racemic), the pIC50 in data set [1] is 5.89. Besides, the Activity result in the data set on A549 was “Non-Toxic”.
On to `COc1cc2c(cc1OC)N(c1cc(OC)c(OC)c(OC)c1)C(C)CC2` (racemic), for which the pIC50 is 6.03 in data set [1], 5.85 in data set [2], < 5.00 in data set [4] and 5.07 in [6]. Moreover, in the data set with A549, the Activity entry is “Non-Toxic”. Besides, the “Ratio IC50” value is recorded as 1.5 in data set [3], >10.6 in data set [5] and 9.1 in data set [7].
Regarding `COc1cc2c(cc1OC)C(c1cc(OC)c(OC)c(OC)c1)CCC2` (racemic), the pIC50 in [1] is 5.17. In addition, the Activity result in the data set on A549 is on record as “Non-Toxic”.
Regarding `Nc1ccn([C@@H]2CS[C@H](CO)O2)c(=O)n1` [LAMIVUDINE], the pIC50 in [1] was 6.29; in [6] it was < 5.00. The “Ratio IC50” value in data set [7] is >19.6.
As for `Cc1ccnc2c1NC(=O)c1cccnc1N2C1CC1` [NEVIRAPINE], the pIC50 in data set [1] was 7.89; in data set [2], 6.04; in [4], 5.54; in [6] it was 7.66. The “Ratio IC50” value in data set [3] was determined as 70; in data set [5], 220; in data set [7], 1.7.
